The target of data set [1] is T1, Human Histamine H3 Receptor (Homo sapiens, UniProt Q9Y5N1).
T1 construct: expressed in transfected cells; host or cells: HEK293T (stably transfected; membrane preparation)
The data set is described as follows: Methyl histamine binding in Human Histamine H3 Receptor Cell Line. To be noted: read-out: hH3 Binding Ki. The protocol:
Evaluation of Methyl histamine binding in Human Histamine H3 Receptor Cell Line
The affinity of test compounds for the histamine 3 (H3) receptor is evaluated in the following manner. […] Cells are scraped from the plate, transferred to centrifuge tubes, washed one time in PBS by centrifugation in a Sorvall RT7 Plus centrifuge (2000 rpm 10 minutes, 4° C.). The resulting pellets are stored at −80° C. until ready for use. Cells are re-suspended in buffer (50 mM Tris pH=7.5) and placed in a Dounce homogenizer, douncing ten times to homogenize cells. The homogenate is spun down by centrifugation (Sorvall RT7 Plus, 1800 rpm 10 minutes, 4° C.). The supernatant is placed in a Corex tube and spun down by centrifugation (Sorvall RC 5c Plus, 17,000 rpm 20 minutes, 4° C.). The pellet is resuspended in buffer (50 mM Tris, pH 7.5). Protein concentration (ug/ul) is determined using the Micro-BCA Protein Determination. The binding assay is set up in a 96 well microtiter plate in a total volume of 250 uL. Non-specific binding is determined in the presence of 10 uM clobenpropit. The final radioligand concentration is 1 nM. The test compound is serially diluted using the Beckman Biomek2000 to a final approximate range of 100 uM to 100 pM. Membranes are suspended in buffer, homogenized in 2 bursts of ten seconds using a Vitris mechanical homogenizer set at power setting 5. Ten μg of membranes are added to each well. Following a one hour incubation at 30° C., the reaction is terminated by the addition of ice cold buffer and rapid filtration with a Packard Filtermate Harvester through a GF/B filter pre-soaked with 1% PEI for one hour. The plate is dried for one hour at 37° C. and 60 μL Microscint Scintillant is added to each well. The CPM per well is measured on a Packard Top Count NXT. Ki values are determined in nM. […] CPM values are expressed as % specific binding and plotted vs compound concentration. A curve is fitted using a four-parameter logistic fit and the IC50 value is determined. The Ki is calculated from this using the Cheng-Prusoff equation: […]=IC50/1+(L/Kd) where L=concentration of free radioligand used in the assay, and Kd is the dissociation constant of the radioligand for the receptor. L is determined for each experiment by counting an aliquot of the diluted radioligand (corresponding to that added to each well) and the Kd has previously been determined under identical conditions for this cell line/radioligand.

Among the data in patent US20080293771A1, “AZACYCLYLBENZAMIDE DERIVATIVES AS HISTAMINE-3 ANTAGONISTS” (Wyeth, priority 2007, published 2008) are Ki and melting point values, retold here.

Structures can show the parent of a compound that is named as a salt.

Broadly, the Ki is the dissociation constant of the complex between target and ligand, obtained from inhibition or displacement. In general, melting point refers to the temperature of the solid-liquid transition.

T1 sequence (Q9Y5N1 whole entry): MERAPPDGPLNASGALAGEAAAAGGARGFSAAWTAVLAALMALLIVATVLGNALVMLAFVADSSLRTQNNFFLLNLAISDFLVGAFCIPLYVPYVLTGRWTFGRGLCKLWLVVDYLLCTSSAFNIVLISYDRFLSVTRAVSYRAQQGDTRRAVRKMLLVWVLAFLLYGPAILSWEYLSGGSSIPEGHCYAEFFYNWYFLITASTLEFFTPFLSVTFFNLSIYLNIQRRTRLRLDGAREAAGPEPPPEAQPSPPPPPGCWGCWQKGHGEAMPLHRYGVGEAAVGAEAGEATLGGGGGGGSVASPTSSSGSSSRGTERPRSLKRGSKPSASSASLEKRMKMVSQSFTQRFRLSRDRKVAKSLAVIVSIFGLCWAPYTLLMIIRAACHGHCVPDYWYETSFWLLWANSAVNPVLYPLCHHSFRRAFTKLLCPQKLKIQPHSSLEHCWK

In turn, `Cc1nc2ccccc2n1Cc1ccc(C(=O)N(C)C2CCNCC2)cc1` [Example 44, N-methyl-4-((2-methyl-1H-benzo[d]imidazol-1-yl)methyl)-N-(piperidin-4-yl)benzamide] had a melting point of 196 to 198 °C. In data set [1], the Ki was over 0.1 µM. For `CN(C(=O)c1ccc(Cn2cnc3ccccc32)cc1)C1CCNCC1` [Example 45, 4-((1H-benzo[d]imidazol-1-yl)methyl)-n-methyl-N-(piperidin-4-yl)benzamide] the same measures were 199 to 201 °C and over 0.1 µM. As for `Cc1nc2cc(C#N)ccc2n1-c1ccc(C(=O)N(C)[C@@H]2CCNC2)cc1` [Example 53, (R)-4-(5-cyano-2-methyl-benzoimidazol-1-yl)-N-methyl-N-pyrrolidin-3-yl-benzamide], the melting point was in the range of 178 to 180 °C. Further, the Ki in data set [1] is over 0.1 µM.

Take `Cc1nc2ccccc2n1-c1ccc(C(=O)N(C)[C@@H]2CCN(C(C)C)C2)c(Cl)c1` [Example 105, 2-chloro-N-methyl-4-(2-methyl-1H-benzimidazol-1-yl)-N-[(3R)-1-(1-methylethyl)pyrrolidin-3-yl]benzamide]: the Ki in data set [1] was in the range of 0.0101 to 0.05 µM. Still for that read-out and setting: in the case of `Cc1nc2ccccc2n1-c1ccc(C(=O)N(C)[C@@H]2CCN(C3CCC3)C2)c(Cl)c1` [Example 106, 2-chloro-N-[(3R)-1-cyclobutylpyrrolidin-3-yl]-N-methyl-4-(2-methyl-1H-benzimidazol-1-yl)benzamide] it was 0.0101 to 0.05 µM.

For the molecule `Cc1nc2ccccc2n1-c1ccc(C(=O)N(C)C2CCN(C(C)C)CC2)cc1F` [Example 119, 3-fluoro-N-methyl-4-(2-methyl-1H-benzimidazol-1-yl)-N-[1-(1-methylethyl)piperidin-4-yl]benzamide], the Ki in data set [1] was at most 0.01 µM. On to `Cc1nc2ccccc2n1-c1ccc(C(=O)N(C)C2CCN(C3CCCC3)CC2)cc1F` [Example 120, N-(1-cyclopentylpiperidin-4-yl)-3-fluoro-N-methyl-4-(2-methyl-1H-benzimidazol-1-yl)benzamide], for which the Ki in data set [1] was in the range of 0.0101 to 0.05 µM. On to `Cc1nc2ccccc2n1-c1ccc(C(=O)N(C)C2CCN(C(C)C)CC2)c(Cl)c1` [Example 121, 2-chloro-N-methyl-4-(2-methyl-1H-benzimidazol-1-yl)-N-[1-(1-methylethyl)piperidin-4-yl]benzamide], for which the Ki in data set [1] was at most 0.01 µM. Consider `Cc1nc2ccccc2n1-c1ccc(C(=O)N(C)C2CCN(C3CCCC3)CC2)c(Cl)c1` [Example 122, 2-chloro-N-(1-cyclopentylpiperidin-4-yl)-N-methyl-4-(2-methyl-1H-benzimidazol-1-yl)benzamide], for which, in data set [1], the Ki was in the range of 0.0501 to 0.1 µM. Still for that read-out and setting: in the case of `Cc1nc2ccccc2n1-c1ccc(C(=O)N[C@@H]2CCN(C3CCCCC3)C2)cc1` [Example 137, N-[(3R)-1-cyclohexylpyrrolidin-3-yl]-4-(2-methyl-1H-benzimidazol-1-yl)benzamide] it was over 0.1 µM; in that of `CCN(C(=O)c1ccc(-n2c(C)nc3ccccc32)cc1)[C@@H]1CCNC1` [Example 138, (R)—N-ethyl-4-(2-methyl-1H-benzo[d]imidazol-1-yl)-N-(pyrrolidin-3-yl)benzamide hydrochloride], over 0.1 µM. For `CCN(C(=O)c1ccc(-n2c(C)nc3ccccc32)cc1)[C@@H]1CCN(C2CCCCC2)C1` [Example 142, N-[(3R)-1-cyclohexylpyrrolidin-3-yl]-N-ethyl-4-(2-methyl-1H-benzimidazol-1-yl)benzamide], the Ki in data set [1] was over 0.1 µM.
